Experimental data from patent US20100273787A1, “KYNURENINE-AMINOTRANSFERASE INHIBITORS” (priority 2007, published 2010).

Legend:
[1] = molecular target: T1, KAT II (partially purified rat liver enzyme) (Rattus norvegicus, UniProt Q64602); test: KAT II activity, partially purified rat liver enzyme ([3H]-kynurenine to [3H]-KYNA); type: biochemical
T1 construct: partially purified rat liver enzyme; from tissue; host or cells: rat liver
Procedure: (§1) For the measurement of KAT II activity, 100 μl of partially purified rat liver enzyme were incubated (2 hrs, 37° C.) with 100 μl of 150 mM Tris-acetate (pH 7.0), 2 μM (2.5 nCi) [^3H]-kynurenine, 1 mM pyruvate and 80 μM pyridoxal-5′-phosphate. Blanks were obtained using denatured protein preparations. The reaction was terminated by the addition of […] of 30% (w/v) trichloroacetic acid. 1 ml of 0.1 M HCl was added, and the denatured protein was removed by centrifugation. 1 ml of the supernatant was applied to a Dowex 50 W H^+cation exchange column, which was then washed with 1 ml of 0.1 M HCl, followed by 1 ml of ultrapure water. [^3H]-KYNA was subsequently eluted with 2×1 ml of ultrapure water, and radioactivity was quantified by liquid scintillation spectrometry. Human recombinant KAT II protein was also used to measure KAT II activity as described above.
(§2) Test compounds were added in 20 μl aliquots at the beginning of the incubation period to examine interference with enzyme activity.

Kynureninase = molecular target: T2, Kynureninase (Rattus norvegicus, UniProt P70712); test: Kynureninase activity in rat liver homogenate; type: biochemical
T2 construct: determined in rat liver homogenate; from tissue; host or cells: rat liver homogenate
T2 sequence (P70712 1-464): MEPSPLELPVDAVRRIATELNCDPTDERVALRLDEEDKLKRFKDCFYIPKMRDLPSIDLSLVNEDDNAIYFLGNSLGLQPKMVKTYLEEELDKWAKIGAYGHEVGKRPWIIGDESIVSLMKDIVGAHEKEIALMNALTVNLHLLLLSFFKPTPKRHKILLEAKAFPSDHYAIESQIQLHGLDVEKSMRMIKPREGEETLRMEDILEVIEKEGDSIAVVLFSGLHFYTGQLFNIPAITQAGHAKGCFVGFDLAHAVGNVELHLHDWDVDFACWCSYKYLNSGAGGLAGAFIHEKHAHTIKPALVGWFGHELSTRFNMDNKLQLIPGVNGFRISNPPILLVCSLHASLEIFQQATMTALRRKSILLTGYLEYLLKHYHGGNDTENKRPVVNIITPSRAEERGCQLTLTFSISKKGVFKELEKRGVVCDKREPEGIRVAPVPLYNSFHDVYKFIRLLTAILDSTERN
Procedure: (§3) Kynurenine 3-hydroxylase and kynureninase activities were determined in rat liver homogenate according to established procedures (see Anal. Biochem., 205:257-62, 1992 and Neuroscience., 61:237-43, 1994 for methodology).

[2] = system: extracellular kynurenic acid (KYNA) and dopamine (DA) levels in prefrontal cortex; test: In vivo reverse dialysis / microdialysis in rat prefrontal cortex; settings: 1 mM into prefrontal cortex for 2 hours by reverse dialysis, FIG. 2
Procedure: Microdialysis was performed in the prefrontal cortex of unanesthetized male rats (200-220 g) according to established procedures (see Eur. J. Neurosci., 4:1264-70, 1992 for methodology).
Compound (A) was also tested in the rat brain in vivo. Briefly, a concentration of 1 mM Compound (A) was introduced into the prefrontal cortex for 2 hours by reverse dialysis. A detailed description of this method can be found in J Neurosci Res 85(4):845-54, 2007 (Ceresoli-Borroni G, Guidetti P, Amori L, Pellicciari R, Schwarcz R).

[3] = molecular target: Human recombinant KAT II protein (Homo sapiens, UniProt Q8N5Z0); test: KAT II activity, human recombinant protein ([3H]-kynurenine to [3H]-KYNA); type: biochemical
Procedure: as §1, §2

Kynurenine 3-hydroxylase = molecular target: T3, Kynurenine 3-hydroxylase (Rattus norvegicus, UniProt O88867); test: Kynurenine 3-hydroxylase activity in rat liver homogenate; type: biochemical
T3 construct: determined in rat liver homogenate; from tissue; host or cells: rat liver homogenate
Procedure: as §3

[4] = system: KYNA production in rat brain tissue slices; test: De novo production of KYNA in rat brain tissue slices; type: cell-based; settings: 6 hr at 37 degrees, FIG. 1
Procedure: The ability of Compound (A) to inhibit the de novo production of KYNA in rat brain tissue slices was also tested. A 2 μM concentration of Compound (A) was assayed as described by Gramsbergen J B, Hodgkins P S, Rassoulpour A, Turski W A, Guidetti P, Schwarcz R., (J. Neurochem., 69:290, 1997). Briefly, an aliquot of the original tissue homogenate was further diluted (1:5, v/v) in a buffer containing 5 mM Tris acetate (pH 8.0), 50 μM pyridoxal-5′-phosphate and 10 mM 2-mercapto-ethanol, and dialyzed overnight at 4 degrees. The reaction mixture containing 150 mM Tris-acetate buffer (pH 7.0), 2 μM L-kynurenine, 1 mM pyruvate, 80 μM pyridoxal-5′-phosphate and 80 μL dialysate in a total volume of […] was incubated w/wo Compound (A) for 6 hr at 37 degrees. The reaction was terminated by adding […] of 50% (w/v) trichloracetic acid and KYNA levels were measured using reverse-phase HPLC with fluorescence detection (excitation, 344 nm; emission, 398 nm).

Human recombinant KAT II protein, sequence (Q8N5Z0 30-425): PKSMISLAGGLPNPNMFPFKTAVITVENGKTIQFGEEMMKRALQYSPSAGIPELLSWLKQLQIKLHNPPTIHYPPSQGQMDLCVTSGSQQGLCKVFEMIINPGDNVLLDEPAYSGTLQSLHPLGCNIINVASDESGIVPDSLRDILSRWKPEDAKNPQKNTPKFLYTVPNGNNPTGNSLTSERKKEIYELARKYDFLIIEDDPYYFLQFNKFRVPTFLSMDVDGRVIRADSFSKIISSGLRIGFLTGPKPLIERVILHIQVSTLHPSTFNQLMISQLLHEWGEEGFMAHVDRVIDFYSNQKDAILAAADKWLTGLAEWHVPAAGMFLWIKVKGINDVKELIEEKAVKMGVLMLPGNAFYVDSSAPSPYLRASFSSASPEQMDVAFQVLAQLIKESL
T1 sequence (Q64602 30-425): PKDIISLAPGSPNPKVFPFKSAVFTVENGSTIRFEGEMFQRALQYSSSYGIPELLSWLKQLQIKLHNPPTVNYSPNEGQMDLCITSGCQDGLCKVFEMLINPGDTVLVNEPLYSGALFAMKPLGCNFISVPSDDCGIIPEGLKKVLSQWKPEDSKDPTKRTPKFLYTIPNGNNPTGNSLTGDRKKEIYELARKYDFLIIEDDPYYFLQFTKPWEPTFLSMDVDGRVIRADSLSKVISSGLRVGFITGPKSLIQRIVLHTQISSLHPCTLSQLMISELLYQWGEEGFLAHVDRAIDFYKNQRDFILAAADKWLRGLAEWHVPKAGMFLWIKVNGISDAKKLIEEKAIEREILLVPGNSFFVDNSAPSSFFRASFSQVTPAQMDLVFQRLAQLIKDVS
T3 sequence (O88867 whole entry): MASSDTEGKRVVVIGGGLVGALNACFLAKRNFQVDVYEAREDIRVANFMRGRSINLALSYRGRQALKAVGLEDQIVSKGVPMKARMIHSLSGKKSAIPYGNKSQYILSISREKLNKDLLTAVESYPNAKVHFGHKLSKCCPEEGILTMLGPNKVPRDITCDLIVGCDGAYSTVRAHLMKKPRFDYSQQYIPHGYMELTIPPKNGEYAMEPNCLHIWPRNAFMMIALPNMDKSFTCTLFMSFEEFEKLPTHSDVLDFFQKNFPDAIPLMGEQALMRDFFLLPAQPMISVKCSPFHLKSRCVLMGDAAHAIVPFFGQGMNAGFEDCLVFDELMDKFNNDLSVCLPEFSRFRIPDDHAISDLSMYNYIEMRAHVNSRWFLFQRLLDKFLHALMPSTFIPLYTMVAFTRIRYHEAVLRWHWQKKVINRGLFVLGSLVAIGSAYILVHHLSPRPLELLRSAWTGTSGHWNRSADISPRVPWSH

IC50 [1]: 2 µM | IC50 (Kynureninase): > 2000 µM | IC50 ([3]; human recombinant protein): 0.2 µM | times more active against human KAT II than against rat KAT II ([3]; human vs rat KAT II): 10 times | times more active than UPF 874 as a KAT II inhibitor in humans ([3]; relative to UPF 874): 3000 times | IC50 (Kynurenine 3-hydroxylase): > 1000 µM
SMILES: C[C@H]1COc2c(N3CCN(N)CC3)c(F)cc3c(=O)c(C(=O)O)cn1c23.O=C(O)C(F)(F)F [Compound (A), (S)-(−)-9-(4-Aminopiperazin-1-yl)-8-fluoro-3-methyl-6-oxo-2,3-dihydro-6H-1-oxa-3a-aza-phenalene-5-carboxylic acid trifluoroacetate]
increase of extracellular dopamine (DA) levels [2]: > 2.5 fold | reduction of extracellular kynurenic acid (KYNA) levels [2]: ~40% | inhibition of de novo production of KYNA from L-kynurenine [4]: dose-dependently inhibit
